What was measured:
[1] = target: Fatty acid-binding protein 5 (Homo sapiens, UniProt Q01469); assay: Displacement of DAUDA from recombinant human N-terminal His-tagged FABP5 expressed in Escherichia coli BL21(DE3) after 20 mins by fluorescence assay
[2] = target: Fatty acid-binding protein, brain (Homo sapiens, UniProt O15540); assay: Displacement of ANS from recombinant human N-terminal His-tagged FABP7 expressed in Escherichia coli BL21(DE3) after 20 mins by fluorescence assay
[3] = target: Fatty acid-binding protein, heart (Homo sapiens, UniProt P05413); assay: Displacement of DAUDA from recombinant human N-terminal His-tagged FABP3 expressed in Escherichia coli BL21(DE3) after 20 mins by fluorescence assay
[4] = Colloidal aggregation of the compound at 20 uM by dynamic light scattering method; assay type: physicochemical
[5] = Half life in C57BL/6 mouse at 20 mg/kg, ip by LC-MS analysis; assay type: ADME, organism-based; details: in vivo

Chain of Fatty acid-binding protein 5 (Q01469 whole entry): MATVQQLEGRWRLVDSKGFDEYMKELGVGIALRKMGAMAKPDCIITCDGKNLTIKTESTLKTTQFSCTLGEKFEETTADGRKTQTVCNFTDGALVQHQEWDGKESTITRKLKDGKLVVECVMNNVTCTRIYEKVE
Chain of Fatty acid-binding protein, heart (P05413 whole entry): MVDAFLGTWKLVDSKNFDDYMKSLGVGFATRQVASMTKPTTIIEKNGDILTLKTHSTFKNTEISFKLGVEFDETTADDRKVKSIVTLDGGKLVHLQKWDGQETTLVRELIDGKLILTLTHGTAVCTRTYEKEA
Chain of Fatty acid-binding protein, brain (O15540 whole entry): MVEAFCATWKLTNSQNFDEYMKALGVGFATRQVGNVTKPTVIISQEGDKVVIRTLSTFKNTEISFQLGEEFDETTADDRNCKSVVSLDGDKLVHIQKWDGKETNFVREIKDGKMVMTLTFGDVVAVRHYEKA

SMILES | Ki ([1]; read-out: Ki) | Ki ([2]; read-out: Ki) | Ki ([3]; read-out: Ki) | also measured
O=C(O)[C@H]1[C@H](c2ccccc2)[C@@H](C(=O)Nc2nc(-c3ccc4c(c3)CCCC4)cs2)[C@H]1c1ccccc1 | > 10 µM | > 10 µM | > 10 µM | 
COc1ccc(COC(=O)[C@H]2[C@H](c3ccccc3)[C@H](C(=O)OCc3ccc(OC)cc3)[C@H]2c2ccccc2)cc1 | > 10 µM | > 10 µM | > 10 µM | 
O=C(O)[C@H]1[C@H](c2ccccc2)[C@H](C(=O)O)[C@H]1c1ccccc1 | > 10 µM | > 10 µM | > 10 µM | 
O=C(OCC1CCOCC1)[C@H]1[C@H](c2ccccc2)[C@H](C(=O)OCC2CCOCC2)[C@H]1c1ccccc1 | > 10 µM | > 10 µM | > 10 µM | 
COc1cc([C@H]2[C@H](C(=O)O)[C@H](c3ccc(O)c(OC)c3)[C@H]2C(=O)O)ccc1O | > 10 µM | > 10 µM | > 10 µM | 
COc1ccccc1[C@H]1[C@H](C(=O)O)[C@H](c2ccccc2OC)[C@H]1C(=O)Oc1cccc2ncccc12 | 3.93 µM | > 10 µM | > 10 µM | 
O=C(O)[C@H]1[C@H](c2ccccc2)[C@H](C(=O)Oc2cccc3ccccc23)[C@H]1c1ccccc1 |  |  | 2.82 µM | 
O=C(O)[C@H]1[C@H](c2ccccc2Br)[C@H](C(=O)O[C@@H]2CCCC[C@H]2c2ccccc2)[C@H]1c1ccccc1Br |  | > 10 µM | > 10 µM | 
COc1ccccc1[C@H]1[C@H](C(=O)O)[C@H](c2ccccc2OC)[C@H]1C(=O)O[C@@H]1CCCC[C@H]1c1ccccc1 |  | 0.4 µM | 0.4 µM | 
O=C(O)[C@H]1[C@H](c2ccccc2)[C@H](C(=O)Nc2nc(-c3ccc4c(c3)CCCC4)cs2)[C@H]1c1ccccc1 | > 10 µM | > 10 µM | > 10 µM | 
O=C(OCc1ccccc1)[C@H]1[C@H](c2ccccc2)[C@H](C(=O)OCc2ccccc2)[C@H]1c1ccccc1 | > 10 µM | > 10 µM | > 10 µM | 
O=C(O)[C@H]1[C@H](c2ccccc2)[C@H](C(=O)Oc2ccccc2-c2ccccc2)[C@H]1c1ccccc1 |  | 0.35 µM |  | 
O=C(O)[C@H]1[C@H](c2ccccc2[N+](=O)[O-])[C@H](C(=O)Oc2cccc3ccccc23)[C@H]1c1ccccc1[N+](=O)[O-] | > 10 µM | > 10 µM | > 10 µM | 
O=C(O)[C@H]1[C@H](c2ccccc2)[C@H](C(=O)O[C@@H]2CCCC[C@H]2c2ccccc2)[C@H]1c1ccccc1 |  |  |  | Activity [4]: Not Active
COc1ccc([C@H]2[C@H](C(=O)O)[C@H](c3ccc(OC)c(OC)c3)[C@H]2C(=O)O)cc1OC | > 10 µM | > 10 µM | > 10 µM | 
O=C(OCc1ccc(F)cc1)[C@H]1[C@H](c2ccccc2)[C@H](C(=O)OCc2ccc(F)cc2)[C@H]1c1ccccc1 | > 10 µM | > 10 µM | > 10 µM | 
O=C(O)[C@H]1[C@@H](c2ccccc2)[C@H](C(=O)Oc2cccc3ccccc23)[C@@H]1c1ccccc1 |  |  | 3.26 µM | 
O=C(O)[C@H]1[C@H](c2ccccc2)[C@H](C(=O)OC2CCCCC2)[C@H]1c1ccccc1 |  | 0.5 µM | > 10 µM | 
O=C(O)[C@H]1[C@H](c2ccccc2[N+](=O)[O-])[C@H](C(=O)O[C@@H]2CCCC[C@H]2c2ccccc2)[C@H]1c1ccccc1[N+](=O)[O-] | > 10 µM | > 10 µM | > 10 µM | 
O=C(Oc1cccc(-c2ccccc2)c1)[C@H]1[C@H](c2ccccc2)[C@H](C(=O)Oc2cccc(-c3ccccc3)c2)[C@H]1c1ccccc1 |  |  |  | Ki [1]: Nd(Insoluble); Ki [2]: Nd(Insoluble); Ki [3]: Nd(Insoluble)
O=C(O)[C@H]1[C@H](c2ccccc2)[C@H](C(=O)OCC(F)(F)F)[C@H]1c1ccccc1 | > 10 µM |  | > 10 µM | 
O=C(O)[C@H]1[C@H](c2ccccc2)[C@H](C(=O)OCc2ccccc2)[C@H]1c1ccccc1 | 3.81 µM |  | > 10 µM | 
O=C(O)[C@H]1[C@H](c2ccccc2)[C@H](C(=O)Oc2cc(Cl)c(Cl)cc2Cl)[C@H]1c1ccccc1 |  | 0.54 µM | 2.98 µM | 
O=C(O)[C@H]1[C@H](c2c(Cl)cccc2Cl)[C@H](C(=O)O[C@@H]2CCCC[C@H]2c2ccccc2)[C@H]1c1c(Cl)cccc1Cl | 1.23 µM |  | > 10 µM | 
O=C(O)[C@H]1[C@H](c2ccc(O)cc2)[C@H](C(=O)Oc2cccc3ccccc23)[C@H]1c1ccc(O)cc1 (racemic) | > 10 µM |  | 2.3 µM | 
C#Cc1cccc(OC(=O)[C@H]2[C@@H](c3ccccc3)[C@H](C(=O)O)[C@@H]2c2ccccc2)c1 (racemic) | 0.89 µM | 0.78 µM | > 10 µM | 
O=C(O)[C@H]1[C@H](c2ccccc2Cl)[C@H](C(=O)O[C@@H]2CCCC[C@H]2c2ccccc2)[C@H]1c1ccccc1Cl (racemic) | 1.7 µM | > 10 µM | > 10 µM | 
O=C(O)C1C(c2ccccc2)C(C(=O)Oc2cccc3ccccc23)C1c1ccccc1 (racemic) |  | 0.45 µM | 2.7 µM | half-life [5]: 3 h; Activity [4]: Not Active

From ChEMBL document CHEMBL4270525, “SAR studies on truxillic acid mono esters as a new class of antinociceptive agents targeting fatty acid binding proteins” (Eur J Med Chem, 2018)
